Values joined by “and” are separate entries in the source; they are usually repeats but may differ in a detail not shown here. Equal values may be shown once.
| melting point | SMILES |
| --- | --- |
| 243 to 245 °C | Nc1nc(-c2ccccc2)c(-c2ccnc(Nc3cccc(F)c3)n2)s1 |
| 239 to 240 °C | CN1CCN(c2nc(-c3ccccc3)c(-c3ccnc(Nc4ccccc4)n3)s2)CC1 |
| 236 to 237 °C | COc1ccc(-c2cccc(Nc3nccc(-c4sc(N)nc4-c4ccccc4)n3)c2)cc1OC |
| 214 to 215 °C | Nc1nc(-c2ccccc2)c(-c2ccnc(Nc3cccc(CO)c3)n2)s1 |
| 244 to 245 °C and 247 to 250 °C | Nc1nc(-c2ccccc2)c(-c2ccnc(Nc3ccccc3)n2)s1 |
| 243 to 245 °C | Nc1nc(-c2ccccc2)c(-c2ccnc(Nc3cccc(Cl)c3)n2)s1 |
